Assay results published in publication PMC6968685 (Journal of Enzyme Inhibition and Medicinal Chemistry, 2020).
Counter-ions that a name gives are not always drawn.

With `CN(C)CCCNCc1ccc(-c2cc(-c3ccc(CNCCCN(C)C)cc3)c3ccccc3n2)cc1` (as salt: (cooh)2) [Compound 1b, 2,4-Bis{4-[(3-dimethylaminopropyl)aminomethyl]phenyl}quinoline] the melting point was 244 to 246 °C. In the case of `CN(C)CCNCc1ccc(-c2cc(-c3ccc(CNCCN(C)C)cc3)c3ccccc3n2)cc1` (as salt: (cooh)2) [Compound 1c, 2,4-Bis{4-[(2-dimethylaminoethyl)aminomethyl]phenyl}quinoline], the melting point is reported as 229 to 231 °C. With `CN1CCN(CCCCNCc2ccc(-c3cc(-c4ccc(CNCCCCN5CCN(C)CC5)cc4)c4ccccc4n3)cc2)CC1` (as salt: (cooh)2) [Compound 1d, 2,4-Bis{4-[(4–(4-methylpiperazin-1-yl)butyl)aminomethyl]phenyl}quinoline] the melting point was 225 to 227 °C. Compound `CN1CCN(CCCNCc2ccc(-c3cc(-c4ccc(CNCCCN5CCN(C)CC5)cc4)c4ccccc4n3)cc2)CC1` (as salt: (cooh)2) [Compound 1e, 2,4-Bis{4-[(3–(4-methylpiperazin-1-yl)propyl)aminomethyl]phenyl}quinoline] has a melting point of 249 to 251 °C. Work on `CN1CCN(CCNCc2ccc(-c3cc(-c4ccc(CNCCN5CCN(C)CC5)cc4)c4ccccc4n3)cc2)CC1` (as salt: (cooh)2) [Compound 1f, 2,4-Bis{4-[(2–(4-methylpiperazin-1-yl)ethyl)aminomethyl]phenyl}quinoline] yielded a melting point of 240 to 242 °C. `c1ccc2c(-c3ccc(CNCCCN4CCOCC4)cc3)cc(-c3ccc(CNCCCN4CCOCC4)cc3)nc2c1` (as salt: (cooh)2) [Compound 1g, 2,4-Bis{4-[(3-morpholinopropyl)aminomethyl]phenyl}quinoline] gave a melting point of 202 to 204 °C. `c1ccc2c(-c3ccc(CNCCN4CCOCC4)cc3)cc(-c3ccc(CNCCN4CCOCC4)cc3)nc2c1` (as salt: (cooh)2) [Compound 1h, 2,4-Bis{4-[(2-morpholinoethyl)aminomethyl]phenyl}quinoline] gave a melting point of 235 to 237 °C. `COc1ccc2nc(-c3ccc(CNCCCCN(C)C)cc3)cc(-c3ccc(CNCCCCN(C)C)cc3)c2c1` (as salt: (cooh)2) [Compound 1i, 6-Methoxy-2,4-bis{4-[(4-dimethylaminobutyl)aminomethyl]phenyl}quinoline] gave a melting point of 227 to 229 °C. In the case of `COc1ccc2nc(-c3ccc(CNCCCN(C)C)cc3)cc(-c3ccc(CNCCCN(C)C)cc3)c2c1` (as salt: (cooh)2) [Compound 1j, 6-Methoxy-2,4-bis{4-[(3-dimethylaminopropyl)aminomethyl]phenyl}quinoline], the melting point is reported as 224 to 226 °C. `COc1ccc2nc(-c3ccc(CNCCCCN4CCN(C)CC4)cc3)cc(-c3ccc(CNCCCCN4CCN(C)CC4)cc3)c2c1` (as salt: (cooh)2) [Compound 1k, 6-Methoxy-2,4-bis{4-[(4–(4-methylpiperazin-1-yl)butyl)aminomethyl]phenyl}quinoline] showed a melting point of 235 to 237 °C. In the case of `COc1ccc2nc(-c3ccc(CNCCCN4CCN(C)CC4)cc3)cc(-c3ccc(CNCCCN4CCN(C)CC4)cc3)c2c1` (as salt: (cooh)2) [Compound 1l, 6-Methoxy-2,4-bis{4-[(3–(4-methylpiperazin-1-yl)propyl)aminomethyl]phenyl}quinoline], the melting point is reported as 223 to 225 °C. In the case of `COc1ccc2c(-c3ccc(CNCCCCN(C)C)cc3)cc(-c3ccc(CNCCCCN(C)C)cc3)nc2c1` (as salt: (cooh)2) [Compound 1m, 7-Methoxy-2,4-bis{4-[(4-dimethylaminobutyl)aminomethyl]phenyl}quinoline], the melting point is reported as 208 to 210 °C. For `COc1ccc2c(-c3ccc(CNCCCN(C)C)cc3)cc(-c3ccc(CNCCCN(C)C)cc3)nc2c1` (as salt: (cooh)2) [Compound 1n, 7-Methoxy-2,4-bis{4-[(3-dimethylaminopropyl)aminomethyl]phenyl}quinoline], the melting point was 237 to 239 °C. In the case of `COc1ccc2c(-c3ccc(CNCCCCN4CCN(C)CC4)cc3)cc(-c3ccc(CNCCCCN4CCN(C)CC4)cc3)nc2c1` (as salt: (cooh)2) [Compound 1o, 7-Methoxy-2,4-bis{4-[(4–(4-methylpiperazin-1-yl)butyl)aminomethyl]phenyl}quinoline], the melting point is reported as 237 to 239 °C. `COc1ccc2c(-c3ccc(CNCCCN4CCN(C)CC4)cc3)cc(-c3ccc(CNCCCN4CCN(C)CC4)cc3)nc2c1` (as salt: (cooh)2) [Compound 1p, 7-Methoxy-2,4-bis{4-[(3–(4-methylpiperazin-1-yl)propyl)aminomethyl]phenyl}quinoline] showed a melting point of 245 to 247 °C. Compound `CN(C)CCCNCc1cccc(-c2cc(-c3cccc(CNCCCN(C)C)c3)c3ccccc3n2)c1` (as salt: (cooh)2) [Compound 1q, 2,4-Bis{3-[(3-dimethylaminopropyl)aminomethyl]phenyl}quinoline] has a melting point of 243 to 245 °C. `CN1CCN(CCCNCc2cccc(-c3cc(-c4cccc(CNCCCN5CCN(C)CC5)c4)c4ccccc4n3)c2)CC1` (as salt: (cooh)2) [Compound 1r, 2,4-Bis{3-[(3–(4-methylpiperazin-1-yl)propyl)aminomethyl]phenyl}quinoline] gave a melting point of 237 to 239 °C. `c1cc(CNCCCN2CCOCC2)cc(-c2cc(-c3cccc(CNCCCN4CCOCC4)c3)c3ccccc3n2)c1` (as salt: (cooh)2) [Compound 1s, 2,4-Bis{3-[(3-morpholinopropyl)aminomethyl]phenyl}quinoline] showed a melting point of 221 to 223 °C. `c1cc(CNCCN2CCOCC2)cc(-c2cc(-c3cccc(CNCCN4CCOCC4)c3)c3ccccc3n2)c1` (as salt: (cooh)2) [Compound 1t, 2,4-Bis{3-[(2-morpholinoethyl)aminomethyl]phenyl}quinoline] gave a melting point of 225 to 227 °C. In the case of `CN(C)CCCCNCc1ccc(-c2cc3ccccc3c(-c3ccc(CNCCCCN(C)C)cc3)n2)cc1` (as salt: (cooh)2) [Compound 2a, 1,3-Bis{4-[(4-dimethylaminobutyl)aminomethyl]phenyl}isoquinoline], the melting point is reported as 184 to 186 °C. With `CN(C)CCCNCc1ccc(-c2cc3ccccc3c(-c3ccc(CNCCCN(C)C)cc3)n2)cc1` (as salt: (cooh)2) [Compound 2b, 1,3-Bis{4-[(3-dimethylaminopropyl)aminomethyl]phenyl}isoquinoline] the melting point was 186 to 188 °C. `CN1CCN(CCCCNCc2ccc(-c3cc4ccccc4c(-c4ccc(CNCCCCN5CCN(C)CC5)cc4)n3)cc2)CC1` (as salt: (cooh)2) [Compound 2c, 1,3-Bis{4-[(4–(4-methylpiperazin-1-yl)butyl)aminomethyl]phenyl}isoquinoline] showed a melting point of 181 to 183 °C. `CN1CCN(CCCNCc2ccc(-c3cc4ccccc4c(-c4ccc(CNCCCN5CCN(C)CC5)cc4)n3)cc2)CC1` (as salt: (cooh)2) [Compound 2d, 1,3-Bis{4-[(3–(4-methylpiperazin-1-yl)propyl)aminomethyl]phenyl}isoquinoline] showed a melting point of 217 to 219 °C. Work on `COc1ccc2cc(-c3ccc(CNCCCCN(C)C)cc3)nc(-c3ccc(CNCCCCN(C)C)cc3)c2c1` (as salt: (cooh)2) [Compound 2e, 7-Methoxy-1,3-bis{4-[(4-dimethylaminobutyl)aminomethyl]phenyl}isoquinoline] yielded a melting point of 157 to 159 °C. Compound `COc1ccc2cc(-c3ccc(CNCCCN(C)C)cc3)nc(-c3ccc(CNCCCN(C)C)cc3)c2c1` (as salt: (cooh)2) [Compound 2f, 7-Methoxy-1,3-bis{4-[(3-dimethylaminopropyl)aminomethyl]phenyl}isoquinoline] has a melting point of 178 to 180 °C. `COc1ccc2cc(-c3ccc(CNCCCCN4CCN(C)CC4)cc3)nc(-c3ccc(CNCCCCN4CCN(C)CC4)cc3)c2c1` (as salt: (cooh)2) [Compound 2g, 7-Methoxy-1,3-bis{4-[(4–(4-methylpiperazin-1-yl)butyl)aminomethyl]phenyl}isoquinoline] showed a melting point of 172 to 174 °C. Work on `COc1ccc2cc(-c3ccc(CNCCCN4CCN(C)CC4)cc3)nc(-c3ccc(CNCCCN4CCN(C)CC4)cc3)c2c1` (as salt: (cooh)2) [Compound 2h, 7-Methoxy-1,3-bis{4-[(3–(4-methylpiperazin-1-yl)propyl)aminomethyl]phenyl}isoquinoline] yielded a melting point of 195 to 197 °C. `COc1ccc2c(-c3ccc(CNCCCCN(C)C)cc3)nc(-c3ccc(CNCCCCN(C)C)cc3)cc2c1` (as salt: (cooh)2) [Compound 2i, 6-Methoxy-1,3-bis{4-[(4-dimethylaminobutyl)aminomethyl]phenyl}isoquinoline] showed a melting point of 135 to 137 °C. With `COc1ccc2c(-c3ccc(CNCCCN(C)C)cc3)nc(-c3ccc(CNCCCN(C)C)cc3)cc2c1` (as salt: (cooh)2) [Compound 2j, 6-Methoxy-1,3-bis{4-[(3-dimethylaminopropyl)aminomethyl]phenyl}isoquinoline] the melting point was 171 to 173 °C. `COc1ccc2c(-c3ccc(CNCCCCN4CCN(C)CC4)cc3)nc(-c3ccc(CNCCCCN4CCN(C)CC4)cc3)cc2c1` (as salt: (cooh)2) [Compound 2k, 6-Methoxy-1,3-bis{4-[(4–(4-methylpiperazin-1-yl)butyl)aminomethyl]phenyl}isoquinoline] showed a melting point of 216 to 218 °C. With `COc1ccc2c(-c3ccc(CNCCCN4CCN(C)CC4)cc3)nc(-c3ccc(CNCCCN4CCN(C)CC4)cc3)cc2c1` (as salt: (cooh)2) [Compound 2l] the melting point was 226 to 228 °C. `CN(C)CCCCNCc1ccc(-c2nc(-c3ccc(CNCCCCN(C)C)cc3)c3ccccc3n2)cc1` (as salt: (cooh)2) [Compound 3a, 2,4-Bis{4-[(4-dimethylaminobutyl)aminomethyl]phenyl}quinazoline] gave a melting point of 153 to 155 °C. `CN(C)CCCNCc1ccc(-c2nc(-c3ccc(CNCCCN(C)C)cc3)c3ccccc3n2)cc1` (as salt: (cooh)2) [Compound 3b, 2,4-Bis{4-[(3-dimethylaminopropyl)aminomethyl]phenyl}quinazoline] showed a melting point of 203 to 205 °C. Compound `CN(C)CCNCc1ccc(-c2nc(-c3ccc(CNCCN(C)C)cc3)c3ccccc3n2)cc1` (as salt: (cooh)2) [Compound 3c, 2,4-Bis{4-[(2-dimethylaminoethyl)aminomethyl]phenyl}quinazoline] has a melting point of 203 to 205 °C. `CN1CCN(CCCCNCc2ccc(-c3nc(-c4ccc(CNCCCCN5CCN(C)CC5)cc4)c4ccccc4n3)cc2)CC1` (as salt: (cooh)2) [Compound 3d, 2,4-Bis{4-[(4–(4-methylpiperazin-1-yl)butyl)aminomethyl]phenyl}quinazoline] gave a melting point of 223 to 225 °C.
